Test results from ChEMBL document CHEMBL1201862, “PubChem BioAssay data set” (2004).
Activity calls are given as the source filed them.

Tests used:
[1] = target: T1, Oxysterols receptor LXR-beta (Homo sapiens, UniProt P55055); assay type: functional, cell-based;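 further: agonist activity at LXR measured by a cell-based luminescence readout across a dose range, run as a counterscreen for daf-12 agonists; HEK293 cells with Gal4-LXR fusion and GAL4-driven luciferase reporter; potency for activation of Gal4-LXR reporter so compounds are agonists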
T1 sequence (P55055 whole entry): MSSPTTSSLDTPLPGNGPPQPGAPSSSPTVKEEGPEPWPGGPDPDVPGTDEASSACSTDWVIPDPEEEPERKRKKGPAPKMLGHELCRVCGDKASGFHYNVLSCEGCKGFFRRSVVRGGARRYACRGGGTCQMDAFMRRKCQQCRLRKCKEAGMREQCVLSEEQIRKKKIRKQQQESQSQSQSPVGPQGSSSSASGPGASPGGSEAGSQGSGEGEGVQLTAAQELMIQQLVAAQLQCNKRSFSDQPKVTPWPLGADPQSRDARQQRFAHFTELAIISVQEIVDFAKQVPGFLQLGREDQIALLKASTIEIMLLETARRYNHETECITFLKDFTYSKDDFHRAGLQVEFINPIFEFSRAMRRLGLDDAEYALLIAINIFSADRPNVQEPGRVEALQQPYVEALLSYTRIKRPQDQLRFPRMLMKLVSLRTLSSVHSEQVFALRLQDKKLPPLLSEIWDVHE

[2] = Late stage assay provider results from the probe development effort to identify selective inhibitors of heat shock protein 90 (HSP90): Absorbance-based cell proliferation assay in SKBR3 cells.; assay type: functional; conditions: SK-BR-3
[3] = Late stage assay provider results from the probe development effort to identify selective inhibitors of heat shock protein 90 (HSP90): Absorbance-based cell proliferation assay in MCF7 cells.; assay type: functional
[4] = target: T2, High affinity choline transporter 1 (Homo sapiens, UniProt Q9GZV3); experiment: CHT choline uptake inhibitors, dose response, cell-based, HEK-293 hCHT, [3H]-choline uptake (AID 652177); assay type: functional
T2 sequence (Q9GZV3 whole entry): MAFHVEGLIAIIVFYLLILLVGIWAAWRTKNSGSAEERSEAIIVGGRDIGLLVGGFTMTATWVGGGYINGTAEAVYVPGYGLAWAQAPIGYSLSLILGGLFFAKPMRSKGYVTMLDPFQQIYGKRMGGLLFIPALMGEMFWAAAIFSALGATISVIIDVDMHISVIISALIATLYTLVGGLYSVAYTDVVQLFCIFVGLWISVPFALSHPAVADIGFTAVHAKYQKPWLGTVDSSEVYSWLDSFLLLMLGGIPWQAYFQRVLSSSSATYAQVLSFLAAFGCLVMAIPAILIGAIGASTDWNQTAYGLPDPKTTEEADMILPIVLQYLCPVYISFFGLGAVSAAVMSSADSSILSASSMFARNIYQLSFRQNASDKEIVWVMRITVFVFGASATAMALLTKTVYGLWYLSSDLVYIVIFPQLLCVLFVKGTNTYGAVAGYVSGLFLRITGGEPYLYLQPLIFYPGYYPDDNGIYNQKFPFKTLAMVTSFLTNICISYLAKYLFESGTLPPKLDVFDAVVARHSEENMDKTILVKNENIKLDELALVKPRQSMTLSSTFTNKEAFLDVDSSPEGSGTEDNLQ

HeLa = experiment: HeLa cell cytotoxicity, dose response, cytotoxicity control, ATP luminescence, cherry-pick samples (AID 687004); assay type: functional, cell-based; conditions: Homo sapiens
HEK293 = experiment: HEK293T cell cytotoxicity, dose response, cytotoxicity control, ATP luminescence, cherry-pick samples (AID 687005); assay type: functional, cell-based; conditions: Homo sapiens;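 further: cells exposed to compound for 48 hours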
[5] = HEK293 Cytotoxicity Assay Measured in Cell-Based System Using Plate Reader - 7071-01_Inhibitor_Dose_CherryPick_Activity_Set2.; assay type: functional
[6] = target: Potassium channel subfamily K member 3 (Homo sapiens, UniProt O14649); experiment: TASK1 (KCNK3) potassium channel inhibitors, SAR follow-up, CHO cells, FluxOR thallium flux (AID 652212); assay type: functional
[7] = SK-MEL-5 parental cell viability reduction, dose response, orthogonal assay for MITF inhibitor project, CellTiter-Glo luminescence, dry powder, set 8 (AID 651586); assay type: functional, cell-based
[8] = MITF: Counter assay: A375 proliferation Measured in Cell-Based System Using Plate Reader - 2084-03_Inhibitor_Dose_DryPowder_Activity_Set8.; assay type: functional; conditions: A-375
[9] = MITF Orthogonal Assay: MALME3 CTG Assay Measured in Cell-Based System Using Plate Reader - 2084-04_Inhibitor_Dose_DryPowder_Activity_Set6.; assay type: functional; conditions: MALME-3
[10] = MITF Orthogonal Assay: SK-MEL-5 CTG Assay Measured in Cell-Based System Using Plate Reader - 2084-02_Inhibitor_Dose_DryPowder_Activity_Set7.; assay type: functional
[11] = TRPM1 promoter luciferase reporter signal decrease, dose response, MITF inhibitor project, cell-based, SK-MEL-5, dry powder, set 8 (AID 624430); assay type: functional
[12] = TRPM1 promoter luciferase reporter signal decrease, dose response, MITF inhibitor project, cell-based, SK-MEL-5, dry powder, set 9 (AID 651588); assay type: functional
[13] = MALME3 melanoma cell viability reduction, dose response, orthogonal assay for MITF inhibitor project, CellTiter-Glo luminescence, dry powder, set 5 (AID 651584); assay type: functional, cell-based; conditions: MALME-3
[14] = A375 melanoma cell viability loss, dose response, counter-screen for MITF modulator project, CellTiter-Glo luminescence, dry powder, set 9 (AID 651591); assay type: functional, cell-based; conditions: A-375
[15] = target: Disintegrin and metalloproteinase domain-containing protein 17 (Homo sapiens, UniProt P78536); experiment: exosite inhibitors of ADAM17, dose response, biochemical (AID 743260)
[16] = ADAM10 protease inhibitors, dose response, selectivity assay for ADAM17 exosite inhibitor project, biochemical, FRET peptide substrate, recombinant human ADAM10 (AID 743259);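 further: ADAM10 enzyme cleaving a FRET peptide substrate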
[17] = cytotoxicity in HepG2 cells, dose response, cytotoxicity control, cell-based, cherry-picked samples (AID 1053183); assay type: functional
[18] = Counterscreen for activators of the function of SWI/SNF related, matrix associated, actin dependent regulator of chromatin, subfamily a, member 2 (SMARCA2, BRM): Luminescence-based cell-based high throughput dose response assay to identify non-selective compounds using the VP16 reporter assay.; assay type: functional
[19] = target: SWI/SNF-related matrix-associated actin-dependent regulator of chromatin subfamily A member 2 (Homo sapiens, UniProt P51531); experiment: Luminescence-based cell-based high throughput dose response assay to identify activators of the function of SWI/SNF related, matrix associated, actin dependent regulator of chromatin, subfamily a, member 2 (SMARCA2, BRM).; assay type: functional
[20] = target: E3 ubiquitin-protein ligase UHRF1 (Homo sapiens, UniProt Q96T88); experiment: Counterscreen for inhibitors of 5-meCpG-binding domain protein 2 (MBD2): TRFRET-based biochemical high throughput dose response assay to identify inhibitors of binding of ubiquitin-like with PHD and ring finger domains 1 (UHRF1) to methylated oligonucleotide.
[21] = inhibitors of non-replicating M. tuberculosis, dose response, luciferase, dry powder (AID 651619); assay type: functional; conditions: Mycobacterium tuberculosis
[22] = growth inhibition of replicating M. tuberculosis, dose response, counter-screen, dry powder, IC90 (AID 651617); assay type: functional; conditions: Mycobacterium tuberculosis
[23] = inhibitors of non-replicating M. tuberculosis, dose response, luciferase, dry powder (AID 651620); assay type: functional; conditions: Mycobacterium tuberculosis

Sequence of E3 ubiquitin-protein ligase UHRF1 (Q96T88 whole entry, the tested form may be a part): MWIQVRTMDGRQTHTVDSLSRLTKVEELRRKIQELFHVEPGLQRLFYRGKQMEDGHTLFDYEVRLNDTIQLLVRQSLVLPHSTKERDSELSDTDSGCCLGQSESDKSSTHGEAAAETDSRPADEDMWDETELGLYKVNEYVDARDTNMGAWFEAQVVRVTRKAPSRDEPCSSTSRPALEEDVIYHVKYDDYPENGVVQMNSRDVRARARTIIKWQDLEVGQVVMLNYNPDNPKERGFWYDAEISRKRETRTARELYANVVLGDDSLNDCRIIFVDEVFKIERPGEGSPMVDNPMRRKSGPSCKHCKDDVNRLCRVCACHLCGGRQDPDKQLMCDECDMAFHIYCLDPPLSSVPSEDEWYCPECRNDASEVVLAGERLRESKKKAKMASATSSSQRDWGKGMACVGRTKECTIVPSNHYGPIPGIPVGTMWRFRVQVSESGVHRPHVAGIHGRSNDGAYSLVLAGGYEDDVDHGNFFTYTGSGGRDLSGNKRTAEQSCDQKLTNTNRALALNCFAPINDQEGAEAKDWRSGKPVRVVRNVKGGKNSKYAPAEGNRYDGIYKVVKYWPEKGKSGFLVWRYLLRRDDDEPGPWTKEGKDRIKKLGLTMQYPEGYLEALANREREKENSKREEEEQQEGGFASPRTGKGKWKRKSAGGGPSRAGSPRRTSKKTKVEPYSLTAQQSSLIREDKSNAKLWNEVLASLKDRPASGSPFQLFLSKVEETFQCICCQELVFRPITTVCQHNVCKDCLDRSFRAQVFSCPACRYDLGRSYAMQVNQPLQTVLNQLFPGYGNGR
Sequence of Disintegrin and metalloproteinase domain-containing protein 17 (P78536 whole entry, the tested form may be a part): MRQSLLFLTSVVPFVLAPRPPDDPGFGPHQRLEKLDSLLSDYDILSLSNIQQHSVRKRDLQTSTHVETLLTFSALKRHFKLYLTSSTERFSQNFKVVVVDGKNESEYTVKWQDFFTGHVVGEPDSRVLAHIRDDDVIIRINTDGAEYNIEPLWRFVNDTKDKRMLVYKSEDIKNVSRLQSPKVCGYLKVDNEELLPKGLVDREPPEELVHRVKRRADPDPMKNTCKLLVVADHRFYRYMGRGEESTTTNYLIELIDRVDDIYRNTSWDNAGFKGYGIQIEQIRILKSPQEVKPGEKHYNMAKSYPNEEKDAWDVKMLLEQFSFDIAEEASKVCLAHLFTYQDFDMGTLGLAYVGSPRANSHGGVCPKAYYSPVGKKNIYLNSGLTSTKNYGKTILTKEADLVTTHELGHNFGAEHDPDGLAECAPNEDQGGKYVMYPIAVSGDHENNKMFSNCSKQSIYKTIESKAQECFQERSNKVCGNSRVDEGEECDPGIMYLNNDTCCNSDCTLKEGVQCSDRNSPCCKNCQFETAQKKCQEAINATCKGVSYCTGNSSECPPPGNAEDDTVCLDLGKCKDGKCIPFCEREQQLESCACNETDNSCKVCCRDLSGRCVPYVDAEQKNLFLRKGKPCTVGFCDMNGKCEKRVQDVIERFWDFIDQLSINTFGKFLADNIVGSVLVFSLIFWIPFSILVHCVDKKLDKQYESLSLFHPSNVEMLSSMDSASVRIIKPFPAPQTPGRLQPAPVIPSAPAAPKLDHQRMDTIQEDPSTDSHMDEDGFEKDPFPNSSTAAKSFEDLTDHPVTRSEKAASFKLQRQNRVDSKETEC
Sequence of Potassium channel subfamily K member 3 (O14649 whole entry): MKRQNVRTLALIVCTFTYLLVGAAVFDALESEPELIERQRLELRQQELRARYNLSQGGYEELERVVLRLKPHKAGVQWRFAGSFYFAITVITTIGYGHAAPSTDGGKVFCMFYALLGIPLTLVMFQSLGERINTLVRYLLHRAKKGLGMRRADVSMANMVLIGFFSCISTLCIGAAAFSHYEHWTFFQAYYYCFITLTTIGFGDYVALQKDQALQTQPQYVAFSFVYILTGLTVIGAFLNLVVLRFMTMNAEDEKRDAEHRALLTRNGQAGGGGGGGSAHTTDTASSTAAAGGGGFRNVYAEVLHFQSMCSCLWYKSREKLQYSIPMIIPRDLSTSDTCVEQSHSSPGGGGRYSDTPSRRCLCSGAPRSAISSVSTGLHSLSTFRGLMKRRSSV
Sequence of SWI/SNF-related matrix-associated actin-dependent regulator of chromatin subfamily A member 2 (P51531 whole entry, the tested form may be a part): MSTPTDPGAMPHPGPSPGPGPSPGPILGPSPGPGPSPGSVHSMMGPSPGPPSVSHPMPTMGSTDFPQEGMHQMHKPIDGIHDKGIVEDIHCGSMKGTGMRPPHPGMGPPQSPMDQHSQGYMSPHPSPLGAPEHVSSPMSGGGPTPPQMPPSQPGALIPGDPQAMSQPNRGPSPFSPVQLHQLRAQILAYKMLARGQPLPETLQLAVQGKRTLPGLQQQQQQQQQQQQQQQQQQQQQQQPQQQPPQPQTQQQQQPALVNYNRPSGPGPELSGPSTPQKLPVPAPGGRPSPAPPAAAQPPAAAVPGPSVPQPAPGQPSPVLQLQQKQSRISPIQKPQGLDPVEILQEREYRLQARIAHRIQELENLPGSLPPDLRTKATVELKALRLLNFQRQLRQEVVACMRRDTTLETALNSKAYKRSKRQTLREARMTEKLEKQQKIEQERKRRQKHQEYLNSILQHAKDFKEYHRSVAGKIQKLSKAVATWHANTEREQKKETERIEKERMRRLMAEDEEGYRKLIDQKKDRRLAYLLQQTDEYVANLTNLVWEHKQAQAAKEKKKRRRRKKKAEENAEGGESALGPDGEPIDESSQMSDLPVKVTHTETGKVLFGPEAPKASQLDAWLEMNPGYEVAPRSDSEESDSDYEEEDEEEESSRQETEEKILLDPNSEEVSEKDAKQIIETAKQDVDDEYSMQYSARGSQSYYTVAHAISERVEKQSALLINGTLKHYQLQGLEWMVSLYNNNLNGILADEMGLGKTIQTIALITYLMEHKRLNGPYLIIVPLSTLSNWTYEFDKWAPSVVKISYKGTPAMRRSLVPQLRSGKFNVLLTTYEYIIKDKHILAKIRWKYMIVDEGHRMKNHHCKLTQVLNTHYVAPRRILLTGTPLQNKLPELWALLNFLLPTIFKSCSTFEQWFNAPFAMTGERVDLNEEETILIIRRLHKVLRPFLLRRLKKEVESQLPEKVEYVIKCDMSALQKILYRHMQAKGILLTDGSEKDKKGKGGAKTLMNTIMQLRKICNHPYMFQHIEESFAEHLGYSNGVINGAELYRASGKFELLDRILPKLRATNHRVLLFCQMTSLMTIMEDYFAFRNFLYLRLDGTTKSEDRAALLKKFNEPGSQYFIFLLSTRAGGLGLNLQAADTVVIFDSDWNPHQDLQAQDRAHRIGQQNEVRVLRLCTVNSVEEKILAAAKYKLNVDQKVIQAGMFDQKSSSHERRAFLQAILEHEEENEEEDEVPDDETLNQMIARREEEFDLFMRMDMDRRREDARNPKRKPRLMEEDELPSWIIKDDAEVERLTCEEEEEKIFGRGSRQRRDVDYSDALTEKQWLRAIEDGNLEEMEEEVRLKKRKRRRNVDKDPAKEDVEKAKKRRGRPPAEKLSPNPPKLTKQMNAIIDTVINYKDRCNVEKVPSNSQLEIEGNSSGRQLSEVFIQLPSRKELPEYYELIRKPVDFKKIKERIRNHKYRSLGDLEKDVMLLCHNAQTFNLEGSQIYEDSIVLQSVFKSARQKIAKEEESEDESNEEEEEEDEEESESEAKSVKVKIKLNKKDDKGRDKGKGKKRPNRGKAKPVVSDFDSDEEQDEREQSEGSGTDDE

For `CC(C)C(N)c1csc(Nc2nncc3ccccc23)n1` (stereo not given), the EC50 [1] was > 67.1 µM (inactive).

With `COc1ccc(NC(=O)c2ccc(NC(=O)c3coc(=O)c(Br)c3)cc2)cc1` the IC50 [2] was 27.2 µM (inactive) and the IC50 [3] was 12.1 µM (inactive).

With `COc1ccc(C(=O)NCc2cc(C)n(C)n2)cc1OC1CCN(C(C)C)CC1` the IC50 [4] was 65.5 µM (inconclusive).

In the case of `Cc1ccccc1CN(C)C[C@H]1OCc2cn(nn2)CCCC(=O)N([C@@H](C)CO)C[C@H]1C`, the AC50 (HeLa) is reported as 14.7 µM (active), the AC50 (HEK293) is reported as 46.7 µM (active) and the AC50 [5] is reported as 46.7 µM (active).

For `O=C(Nc1cccc(NC(=O)c2cccc(F)c2)c1)c1ccccc1`, the IC50 [6] was 0.046 µM (active).

In the case of `CC(C)N1CCN(C2=C(Nc3ccc(F)cc3)C(=O)c3ccccc3C2=O)CC1`, the AC50 [7] is reported as > 70 µM (inactive), the AC50 [8] is reported as > 70 µM (inactive) and the AC50 [9] is reported as 38.6 µM (active). For the same compound, the AC50 [10] was 10.5 µM (active), the AC50 [11] was 3.6 µM (active) and the AC50 [12] was 9.77 µM (active). For the same compound, the AC50 [13] was 38.6 µM (active) and the AC50 [14] was > 70 µM (inactive).

With `CC(C)C(NS(=O)(=O)c1c(Cl)cccc1Cl)C(=O)OCC(=O)c1c[nH]c2ccccc12` (stereo not given) the IC50 [15] was > 69.5 µM (inactive) and the IC50 [16] was > 7.72 µM (active).

With `O=S(=O)(c1ccc(F)cc1)N1C[C@@H]2N[C@H](C1)[C@@H]2c1ccc(/C=C/c2ccccc2)cc1` the AC50 [17] was 19.1 µM (active).

With `COc1cccc2nc3c(C(=O)NCCN(C)C)cccc3cc12` the EC50 [18] was > 91.2 µM (inactive), the EC50 [19] was > 10.1 µM (inactive) and the IC50 [20] was > 43.8 µM (inactive).

With `c1ccc(-n2cc(CSc3nnc(C4CCCC4)o3)nn2)cc1` the IC90 [21] was 1 µM (active), the IC90 [22] was 125 µM (active) and the IC90 [23] was 1 µM (active).
